Results reported in patent publication US7563598B2 (Ambergen, Inc., priority 2004, dated 2009).
Entries after “also recorded” stand apart in the source; their conditions may differ. Read-outs that look alike come from different tables or passages of the source. Square brackets hold non-standard residues; d marks the D form. Peptide text beside a SMILES is read from it. * marks the point of attachment. Nva = CCC[C@H](N)C(=O)O; Cbz = O=C(OCc1ccccc1)*

How the values were obtained:
[1] = PURE I reconstituted E. coli translation system, all components except the DNA; conditions: 37° C., up to 15 min
[2] = rabbit reticulocyte lysate (RRL extract); conditions: 30° C., up to 5 min
[3] = Solution B of the PURE kit (Post-Genome Institute); conditions: 37 degrees, up to 20 minutes (or 10 minutes)
[4] = zonally purified E. coli ribosomes
[5] = system: proteolysis in PURE I reconstituted E. coli translation system; format: biochemical
[6] = system: rabbit reticulocyte lysate, wheat germ extract, E. coli S30 extract; conditions: within several minutes after incubation with the translation mixtures
Experimental: 100 picomoles of the synthetic R6 peptide in 1 microliter of water is added to 5 ul of a test solution and incubated for 20 minutes (or 10 minutes) at 37 degrees. 50 ul of PBS is then added to the test mixture and the resulting solution is passed over a 1 microliter anti-FLAG microcolumn (which recognizes the epitope sequence at the N terminus of the R6 peptide). The column is washed with 50 ul of deionized water and the bound peptides are eluted directly onto the maldi plate using 1 microliter of CHCA matrix in 50% acetonitrile/0.2% TFA/49.8% deionized water. The intact R6 peptide and degradation products are detected by Maldi-Tof mass spectrometry in positive ion linear mode.

protein synthesis = assay: Effect of protease inhibitors on protein synthesis in the translation system; format: biochemical
[7] = system: protease activity of E. coli translation extract; assay: Mass spectrometry assay of inhibition of R6 degradation in E. coli translation extract; conditions: extract pre-treated with inhibitor, then R6; MALDI
Experimental: In this experiment, protease inhibitors were tested to inhibit the degradation of the peptide R6 (described above). […] Following pretreatment, peptide R6 was added to above translation mix and incubated for 10 min at 30° C. The reaction was terminated by addition of 100 μL of 100 mM EDTA and the solution was immediately applied to the microcolumn containing 1 μL of Sigma ANTI-FLAG beads. The beads were then washed with 50 μL of 20 mM Tris-HCl, pH 7.2 and the bound peptide was eluted with approximately 4 μL of matrix solution (CHCA/acetonitrile/TFA) directly onto a MALDI plate. In the control experiment, extract pre-treated with buffer was used and processed as described above. Similar experiments were carried out using E. coli translation extract.

[8] = heat denatured rabbit reticulocyte extract (by boiling at 100° C. for 5 min in presence of SDS); conditions: 30° C.
[9] = system: proteases in rabbit reticulocyte extract; conditions: extract pre-treated with inhibitor, then R6; MALDI
Experimental: In this experiment, protease inhibitors were tested to inhibit the degradation of the peptide R6 (described above). In one experiment, 10 μL of rabbit reticulocyte extract was pre-treated by incubating with a specific protease inhibitor such as ebelactone or 2-LeuLeuNVa-CHO for 10-15 min. Following pretreatment, peptide R6 was added to above translation mix and incubated for 10 min at 30° C. The reaction was terminated by addition of 100 μL of 100 mM EDTA and the solution was immediately applied to the microcolumn containing 1 μL of Sigma ANTI-FLAG beads. The beads were then washed with 50 μL of 20 mM Tris-HCl, pH 7.2 and the bound peptide was eluted with approximately 4 μL of matrix solution (CHCA/acetonitrile/TFA) directly onto a MALDI plate. In the control experiment, extract pre-treated with buffer was used and processed as described above.
2 μL of the above protease inhibitor solution was added to 10 μL of the translation mixture.

[10] = system: protein synthesis in rabbit reticulocyte lysate; format: biochemical

Experimental for Amber-PURE: In order to remove the protease activity from solution B, 100 ul of solution B was added to 200 ul of deionized water and spun through a YM100 Microcon filter with a 100 kDa cut-off (Millipore, Inc) at 10,000 rpm for 5 minutes in a benchtop microfuge at room temperature. […] A 10 ul aliquot contains 3 ul of diluted and filtered solution B, 7 ul of solution A and 10 picomoles of zonally purified ribosomes.
In this example, the protease-depleted system is used to produce the reference peptide (R6) by in vitro translation using DNA coding for the R6 peptide.

MDYKDDDDKRRRRRRFFF
fragment found [1]: MDYKDDDDKRRRRR, major, 15 min
cleaved bond [2]: Phe-Phe, minor, 1 min; also recorded: Arg-Arg, 1 min
cleaved bond [3]: R-R
not cleaved [4]: devoid of protease activity

R6: protease-sensitive peptide, sequence MDYKDDDDKRRRRRRFFF (SEQ ID NO:152), FLAG epitope at the N-terminus (N-terminal FLAG epitope)
peptide products obtained by in vitro translation (PURE): correspond to degradation products
intact peptide after incubation with PURE I mixture ([5]; 15 min, 37° C., no inhibitor): disappearance of the intact R6 peptide
peptide product obtained by in vitro translation (Amber-PURE): intact patent peptide
degradation of sub-nanomolar amounts of peptide [6]: complete degradation

NCCc1ccc(S(=O)(=O)F)cc1 [AEBSF]
inhibition of R6 proteolysis in PURE I ([5]; inhibitor pre-incubated 15-30 min, R6 15 min at 37° C.): excellent inhibition
inhibition of protein synthesis (protein synthesis; if used together with "Pefabloc protector"): could also inhibit protein synthesis

CC(C)C[C@H](NC(=O)[C@@H](NC(=O)N[C@@H](Cc1ccccc1)C(=O)O)[C@@H]1CCN=C(N)N1)C(=O)N[C@H](C=O)Cc1ccccc1 [Chymostatin]
inhibition of protease activity (R6 degradation) in E. coli translation extract [7]: only weakly inhibited

MYTDIEMNRLGK
not cleaved [8]: retains complete peptide signal

aprotinin
inhibition of protease activity (R6 degradation) in E. coli translation extract [7]: significant inhibition
inhibition of protein synthesis (protein synthesis): inhibit protein synthesis

Ebelactone
inhibition of R6 degradation (protease activity) in rabbit reticulocyte extract [9]: only weak protease inhibition

C[C@@H]1C[C@@H]([C@H](O)CC2CC(=O)NC(=O)C2)C(=O)[C@@H](C)C1 [cycloheximide]
inhibition of protein synthesis [10]: completely inhibited

CCC[C@@H](C=O)NC(=O)[C@H](CC(C)C)NC(=O)[C@H](CC(C)C)NC(=O)OCc1ccccc1 [2-LeuLeuNvaCHO] (Cbz-Leu-Leu-[Nva]-aldehyde)
inhibition of R6 degradation (protease activity) in rabbit reticulocyte extract [9]: significant reduction in protease activity
